Like-named read-outs stand apart in the source and are kept apart here.
Experiments:
Stat1:Stat1 = molecular target: T1, Stat1:Stat1 (Mus musculus, UniProt P42225); experiment: EMSA, disruption of Stat1:Stat1 DNA-binding activity in vitro (hSIE probe); format: biochemical; details: for Level of DNA-binding activity of Stat1 (EMSA): EGF-stimulated fibroblast nuclear extracts, 30 min preincubation, FIG. 1A
T1 construct: endogenous in cells; host or cells: EGF-stimulated fibroblasts (nuclear extract)
T1 sequence (P42225 2-749 limits assumed): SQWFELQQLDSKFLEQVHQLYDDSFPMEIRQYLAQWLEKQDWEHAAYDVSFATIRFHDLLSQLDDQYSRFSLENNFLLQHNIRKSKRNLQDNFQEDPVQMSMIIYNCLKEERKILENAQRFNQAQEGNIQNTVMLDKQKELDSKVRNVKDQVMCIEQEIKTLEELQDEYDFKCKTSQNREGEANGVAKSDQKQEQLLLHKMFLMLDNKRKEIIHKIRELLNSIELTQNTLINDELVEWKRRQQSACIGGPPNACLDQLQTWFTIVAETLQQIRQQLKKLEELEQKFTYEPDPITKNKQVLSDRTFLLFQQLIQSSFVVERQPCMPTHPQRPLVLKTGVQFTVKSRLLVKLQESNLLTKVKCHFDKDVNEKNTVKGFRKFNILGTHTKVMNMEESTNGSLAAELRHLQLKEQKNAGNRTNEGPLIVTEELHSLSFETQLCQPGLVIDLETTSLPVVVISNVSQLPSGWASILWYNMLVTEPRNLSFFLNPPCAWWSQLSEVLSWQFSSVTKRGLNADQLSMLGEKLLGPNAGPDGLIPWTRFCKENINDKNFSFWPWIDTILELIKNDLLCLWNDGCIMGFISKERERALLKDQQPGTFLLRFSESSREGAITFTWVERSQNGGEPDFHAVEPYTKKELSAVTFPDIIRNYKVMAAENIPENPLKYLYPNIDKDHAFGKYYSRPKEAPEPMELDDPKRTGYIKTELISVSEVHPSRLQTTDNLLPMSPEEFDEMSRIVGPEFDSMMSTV
Method: FIGS. 1A-D are photographs showing EMSA analyses of DNA-binding activities and effects of platinum complexes. Nuclear extracts containing activated Stat1, Stat3 and Stat5 are treated with the indicated concentrations of platinum complex ISSCPA-1, ISSCPA-3, ISSCPA-7, or PtCl4 for 30 min at room temperature prior to incubation with radiolabeled oligonucleotide probes. […] Positions of complexes of DNA with STAT, E2F1 or NFκB (p65, p50) in gel are labeled. Control lanes represent nuclear extracts that are not pre-incubated with platinum complexes.
Nuclear extracts were prepared from cell lines and used for EMSA as previously described (Turkson et al., 1998; Yu et al., 1995; Garcia et al., 1997). In some cases, cells were pre-treated with platinum complexes for the indicated times prior to harvesting. Where cells were stimulated with EGF (6 ng/ml), duration of treatment was 15 min. Nuclear extracts were pre-incubated with compounds for 30 min at room temperature prior to incubation with radiolabeled probe. The ^32P-radiolabeled oligonucleotide probes used are hSIE (high affinity sis-inducible element, m67 variant, 5′-[…]-3′) (SEQ ID NO:1) that binds both Stat1 and Stat3 (Garcia et al., 1997; Wagner et al., 1990), MGFe (mammary gland factor element from the bovine β-casein gene promoter, 5′-AGATTTCTAGGAATTCAA-3′) (SEQ ID NO:2) that binds Stat1 and Stat5 (Gouilleux et al., 1995; Seidel et al., 1995), the NF-κB binding oligo (5′-[…]-3′) (SEQ ID NO:3), and the oligonucleotide sequence from the DHFR promoter that binds E2F1.
Platinum compounds were evaluated for inhibitory activity against STAT DNA-binding in vitro.

[1] = test system: human breast and non-small cell lung cancer cell lines; experiment: Cell proliferation ([3H]-thymidine incorporation) of human breast and non-small cell lung cancer cell lines; format: cell-based; details: FIG. 6
Description: (§1) FIGS. 6A and 6B show the effects of platinum complexes on cell proliferation and viability. […] Values are the mean and S.D. of 3-4 independent determinations.
(§2) The effects of platinum complexes on cell proliferation measured by [^3H]-thymidine incorporation were investigated.

normal mouse fibroblasts = experiment: Cell proliferation ([3H]-thymidine incorporation) of normal mouse fibroblasts; format: cell-based; details: FIG. 6; reduction in growth rate but not growth inhibitory
Method: as §1
(§3) Proliferating cells were counted by phase-contrast microscopy for viable cells (using trypan blue exclusion. TUNEL staining was carried according to supplier's instructions to detect apoptotic cells. Cells (NIH3T3 or NIH3T3/v-Src) were first treated with or without compounds 24-48 h prior to staining.
as §2

[2] = test system: human tumor cells that do not contain constitutively-active Stat3; experiment: Cell proliferation ([3H]-thymidine incorporation) of human tumor cells without constitutively-active Stat3; format: cell-based; details: FIG. 6; reduction in growth rate but not growth inhibitory
Description: as §1, §2

[3] = test system: normal NIH3T3 fibroblasts; experiment: TUNEL staining for apoptosis, normal fibroblasts; format: cell-based, mouse; details: 48 h treatment, FIG. 7
Method: FIG. 7 is a photograph showing induction of apoptosis by platinum complexes. Normal NIH3T3 fibroblasts and their v-Src-transformed counterparts were treated with platinum complexes for 48 h and analyzed for evidence of DNA damage using TUNEL staining kit.
as §3
Studies have established a critical role for constitutive Stat3 signaling in the survival of transformed and tumor cells (Catlett-Falcone et al., 1999a; Grandis et al., 2000a; Epling-Burnette et al., 2001; Bowman et al., 2000b; Grandis et al., 2000b; Horiguchi et al., 2002). Effects of the subject platinum compounds on viability and survival of malignant cells were evaluated. To determine whether inhibition of persistently-active Stat3 by the subject compounds results in apoptosis, Src-transformed and normal mouse fibroblasts were treated with the subject platinum compounds and subjected to TUNEL staining for evidence of apoptosis.

Row | Structure (SMILES) | IC50 (Stat1:Stat1) | Level of DNA-binding activity of Stat1 (EMSA) (Stat1:Stat1; hSIE probe) | Growth of human breast and non-small cell lung cancer cell lines ([3H]-thymidine incorporation) [1] | Growth of normal mouse fibroblasts ([3H]-thymidine incorporation) (normal mouse fibroblasts) | Growth of human tumor cells that do not contain constitutively-active Stat3 [2] | Apoptosis (TUNEL staining) in normal fibroblasts [3] | IC50 (Stat1:Stat1; nuclear extracts pre-incubated 30 min at room temperature, hSIE probe, read-out: IC50 for disruption of STAT DNA-binding activity in vitro, Stat1:Stat1)
1 | O=[N+]([O-])[Pt]1([Cl])([Cl])([Cl])[NH]CC[NH]1 [ISS CPA-1] | 20 µM | dose-dependent reduction | strongly inhibited | marginal effect | marginal effect | marginal degree of apoptosis | –
2 | [NH2][Pt]([NH2])([Cl])([Cl])([Cl])[N+](=O)[O-] [ISS CPA-7] | – | dose-dependent reduction | strongly inhibited | marginal effect | marginal effect | marginal degree of apoptosis | 4 µM

Reference: patent US7763585B2, “Methods for inhibiting tumor cell proliferation” (priority 2003, dated 2010)
